Assays:
Conditions in all cases: 48 h
NOMO1 [1] = test: cell viability relative to DMSO control; higher = less cytotoxic
Method in brief: (§1)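 In 1536-well plates, 5 μl of leukemia cells were seeded per well: 500 cells/well for NOMO1 or SEM and 1000 cells/well for P12-Ichikawa. Each line had first been adapted for at least four passages in each medium. Library compounds in DMSO were pin-dosed at 11 threefold concentrations between 47 μM and 0.79 nM, and CellTiter-Glo One luminescence was read after 48 h at 37°C. Viability is a per-plate percentage relative to DMSO wells, with cell-free wells as background.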

P12-Ichikawa [2] = test: as above
Method in brief: as §1

SEM cells = test: AUC of viability dose-response curve (% viability x log10 dose units); higher = less sensitive
Method in brief: (§2)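 Leukemia cells adapted to each medium (500 or 1000 cells/well, 1536-well plates) were exposed to library compounds in DMSO for 48 h at 37°C at 11 threefold doses, 47 μM to 0.79 nM. Luminescence by CellTiter-Glo One was normalised per plate to DMSO and cell-free wells, then fitted with a four-parameter log-logistic curve on log10 dose. Curves above full viability were scaled and quality-control failures removed before area under the curve was integrated by trapezoidal rule.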

NOMO1 [3] = test: as above
Method in brief: as §2

P12-Ichikawa [4] = test: as above
Method in brief: as §2

COc1cc[nH]c2ncc(C(=O)C(=O)N3CCN(C(=O)c4ccccc4)C[C@H]3C)c1-2
cell viability [%]
Conditions	HPLM + 10% dialyzed FBS	RPMI 5 mM glucose + 10% FBS	RPMI 5 mM glucose + 10% dialyzed FBS
NOMO1 [1], 0.000781 µM	–	–	109
NOMO1 [1], 0.00234 µM	–	–	117
NOMO1 [1], 0.00702 µM	–	–	114
NOMO1 [1], 0.0211 µM	–	–	115
NOMO1 [1], 0.0632 µM	–	–	119
NOMO1 [1], 0.19 µM	–	–	108
NOMO1 [1], 0.569 µM	–	–	108
NOMO1 [1], 1.71 µM	–	–	105
NOMO1 [1], 5.12 µM	–	–	99.2
NOMO1 [1], 15.4 µM	–	–	103
NOMO1 [1], 46.1 µM	–	102	91.9
P12-Ichikawa [2], 0.000781 µM	114	114	105
P12-Ichikawa [2], 0.00234 µM	112	118	109
P12-Ichikawa [2], 0.00702 µM	118	119	96.9
P12-Ichikawa [2], 0.0211 µM	111	117	110
P12-Ichikawa [2], 0.0632 µM	112	117	101
P12-Ichikawa [2], 0.19 µM	109	117	99.1
P12-Ichikawa [2], 0.569 µM	108	122	116
P12-Ichikawa [2], 1.71 µM	101	111	103
P12-Ichikawa [2], 5.12 µM	106	107	99.4
P12-Ichikawa [2], 15.4 µM	103	111	99.5
P12-Ichikawa [2], 46.1 µM	102	97.5	103

AUC of viability dose-response curve
Conditions	NOMO1 [3]	P12-Ichikawa [4]	SEM cells
HPLM + 10% dialyzed FBS	389	455	419
RPMI 5 mM glucose + 10% FBS	461	463	453
RPMI 5 mM glucose + 10% dialyzed FBS	452	470	428
